Data on six molecules can be found in US9975885B2, “Broad-spectrum non-covalent coronavirus protease inhibitors” (priority 2016, dated 2018).

Test [1] has as its target FIPV-3CL^pro (Feline coronavirus (strain FIPV WSU-79/1146) (FCoV), UniProt Q98VG9). As to the kind of experiment: biochemical.
In test [2] the target is PEDV-3CL^pro (Porcine epidemic diarrhea virus (strain CV777) (PEDV), UniProt P0C6Y4). As to the kind of experiment: biochemical.
Test [3] has as its target NL63-3CL^pro (Human coronavirus NL63 (HCoV-NL63), UniProt P0C6X5). As to the kind of experiment: biochemical.
For test [4], the target named is HKU1-3CL^pro (Human coronavirus HKU1 (isolate N1) (HCoV-HKU1), UniProt P0C6X2). As to the kind of experiment: biochemical.
The target of test [5] is OC43-3CL^pro (Human coronavirus OC43 (HCoV-OC43), UniProt P0C6X6). The format is biochemical.
Test [6] has as its target SARS-3CL^pro (Severe acute respiratory syndrome coronavirus (SARS-CoV), UniProt P0C6X7). The format is biochemical.
In test [7] the target is HKU4-3CL^pro (Bat coronavirus HKU4 (BtCoV) (BtCoV/HKU4/2004), UniProt P0C6W3). The format is biochemical.
Test [8] deals with HKU5-3CL^pro (Bat coronavirus HKU5 (BtCoV) (BtCoV/HKU5/2004), UniProt P0C6W4). The format is biochemical.
In test [9] the target is HKU9-3CL^pro (Bat coronavirus HKU9 (BtCoV) (BtCoV/HKU9), UniProt P0C6W5). It is filed as biochemical.
The subject of test [10] is Ten CoV 3CL^pro's (FIPV-, PEDV-, NL63-, HKU1-, OC43-, SARS-, HKU4-, HKU5-, HKU9-, IBV-3CL^pro). The format is biochemical, coronaviruses (α-, β-, γ-CoV).

Chain of HKU5-3CL^pro (P0C6W4 3339-3644 limits assumed): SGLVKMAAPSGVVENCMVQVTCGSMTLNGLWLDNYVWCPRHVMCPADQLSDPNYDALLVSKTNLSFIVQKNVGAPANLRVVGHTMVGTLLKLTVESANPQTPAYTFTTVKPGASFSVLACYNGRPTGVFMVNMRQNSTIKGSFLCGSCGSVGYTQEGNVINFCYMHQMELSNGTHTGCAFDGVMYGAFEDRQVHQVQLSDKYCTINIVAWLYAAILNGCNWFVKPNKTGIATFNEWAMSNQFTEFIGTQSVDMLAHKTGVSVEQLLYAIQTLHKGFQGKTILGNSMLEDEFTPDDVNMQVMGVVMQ
Chain of HKU9-3CL^pro (P0C6W5 3104-3409 limits assumed): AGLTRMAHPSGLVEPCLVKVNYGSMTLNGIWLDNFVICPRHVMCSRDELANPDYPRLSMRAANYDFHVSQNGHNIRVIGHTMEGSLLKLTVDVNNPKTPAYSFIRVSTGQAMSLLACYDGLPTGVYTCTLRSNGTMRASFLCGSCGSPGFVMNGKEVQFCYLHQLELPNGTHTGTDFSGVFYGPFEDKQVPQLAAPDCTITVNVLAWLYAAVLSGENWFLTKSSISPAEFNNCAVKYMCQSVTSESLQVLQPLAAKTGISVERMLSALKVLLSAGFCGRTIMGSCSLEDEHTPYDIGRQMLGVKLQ
Chain of FIPV-3CL^pro (Q98VG9 2904-3205 limits assumed): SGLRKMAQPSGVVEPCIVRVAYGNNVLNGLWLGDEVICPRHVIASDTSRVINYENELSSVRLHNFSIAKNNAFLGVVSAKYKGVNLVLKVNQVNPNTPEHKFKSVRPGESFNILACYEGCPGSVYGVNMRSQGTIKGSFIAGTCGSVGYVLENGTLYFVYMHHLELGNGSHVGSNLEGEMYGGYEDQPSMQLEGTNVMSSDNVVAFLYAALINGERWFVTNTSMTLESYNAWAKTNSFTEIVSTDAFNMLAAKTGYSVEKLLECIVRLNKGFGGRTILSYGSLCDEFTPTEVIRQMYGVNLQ
Chain of HKU4-3CL^pro (P0C6W3 3292-3597 limits assumed): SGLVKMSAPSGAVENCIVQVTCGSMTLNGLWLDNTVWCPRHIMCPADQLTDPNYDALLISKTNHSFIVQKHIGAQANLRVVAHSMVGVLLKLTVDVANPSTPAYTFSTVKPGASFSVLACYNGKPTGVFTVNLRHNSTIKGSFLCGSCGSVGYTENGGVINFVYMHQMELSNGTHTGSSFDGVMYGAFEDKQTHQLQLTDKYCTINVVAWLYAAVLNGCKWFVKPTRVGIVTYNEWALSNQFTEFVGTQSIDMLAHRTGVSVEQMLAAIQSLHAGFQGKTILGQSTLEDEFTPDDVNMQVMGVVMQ
Chain of HKU1-3CL^pro (P0C6X2 3335-3637 limits assumed): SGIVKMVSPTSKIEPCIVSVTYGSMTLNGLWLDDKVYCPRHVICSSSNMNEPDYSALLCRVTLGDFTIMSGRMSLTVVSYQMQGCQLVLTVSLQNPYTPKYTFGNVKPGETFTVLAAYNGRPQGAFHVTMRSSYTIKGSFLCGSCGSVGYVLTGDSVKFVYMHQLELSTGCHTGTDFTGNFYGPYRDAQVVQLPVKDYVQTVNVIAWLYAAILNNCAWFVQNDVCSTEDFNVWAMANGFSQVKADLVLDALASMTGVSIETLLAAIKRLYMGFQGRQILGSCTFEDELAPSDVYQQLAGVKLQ
Chain of OC43-3CL^pro (P0C6X6 3247-3549 limits assumed): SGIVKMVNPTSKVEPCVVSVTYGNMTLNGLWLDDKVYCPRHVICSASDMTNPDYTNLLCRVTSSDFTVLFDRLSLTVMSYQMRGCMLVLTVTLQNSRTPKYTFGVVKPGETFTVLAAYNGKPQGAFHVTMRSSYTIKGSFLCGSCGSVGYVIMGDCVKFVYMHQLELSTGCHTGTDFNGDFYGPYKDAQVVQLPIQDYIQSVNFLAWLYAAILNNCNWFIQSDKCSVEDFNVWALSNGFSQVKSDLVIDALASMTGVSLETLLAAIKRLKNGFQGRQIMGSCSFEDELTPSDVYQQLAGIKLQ
Chain of NL63-3CL^pro (P0C6X5 2940-3242 limits assumed): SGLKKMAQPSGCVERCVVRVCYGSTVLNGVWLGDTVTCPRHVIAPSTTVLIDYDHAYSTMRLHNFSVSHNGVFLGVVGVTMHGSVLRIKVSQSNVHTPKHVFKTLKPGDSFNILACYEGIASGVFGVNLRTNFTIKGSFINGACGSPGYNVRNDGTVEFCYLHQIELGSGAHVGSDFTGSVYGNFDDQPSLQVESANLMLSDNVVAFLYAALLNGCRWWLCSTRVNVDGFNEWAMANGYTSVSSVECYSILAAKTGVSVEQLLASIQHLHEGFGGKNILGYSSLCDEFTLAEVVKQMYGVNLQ
Chain of PEDV-3CL^pro (P0C6Y4 2998-3299 limits assumed): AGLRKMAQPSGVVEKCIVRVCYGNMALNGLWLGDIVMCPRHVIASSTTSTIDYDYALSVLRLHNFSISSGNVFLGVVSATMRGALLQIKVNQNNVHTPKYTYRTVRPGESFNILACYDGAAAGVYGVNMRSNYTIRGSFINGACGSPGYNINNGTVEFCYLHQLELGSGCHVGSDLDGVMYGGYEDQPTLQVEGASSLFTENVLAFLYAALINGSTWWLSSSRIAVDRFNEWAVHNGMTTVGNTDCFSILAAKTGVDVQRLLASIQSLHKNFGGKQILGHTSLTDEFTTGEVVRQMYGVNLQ

The term IC50 denotes the concentration at which inhibition is half-maximal. The low end stands for greater potency, the high end for weaker potency. Turning to `CC(C)(C)c1ccc(N(C(=O)c2c[nH]cn2)C(C(=O)NCc2ccccc2)c2cccnc2)cc1` (stereo not shown) [Compound 48, N-(2-(benzylamino)-2-oxo-1-(pyridin-3-yl)ethyl)-N-(4-(tert-butyl)phenyl)-1H-imidazole-4-carboxamide], the IC50 turned out to be 19 ± 1.7 µM in test [1]; 3.4 ± 0.4 µM in test [2]; 26.4 ± 4.2 µM in test [3]; 8 ± 1.5 µM in test [4]; 46.5 ± 8 µM in test [5]; 6.6 ± 0.8 µM in [6]. Also, the IC50 worked out at 26.1 ± 2.1 µM in [7], 24.8 ± 2.9 µM in [8] and 40.4 ± 8.7 µM in test [9]. Besides, in test [10], the “Gini Coefficient” value stood at 0.17. In addition, the “Score (performance metric score)” value in [10] worked out at 3.5.

Turning to `CC(C)(C)c1ccc(N(C(=O)c2c[nH]cn2)C(C(=O)NC2CC2)c2cccnc2)cc1` (stereo not shown) [Compound 46, N-(4-(tert-butyl)phenyl)-N-(2-(cyclopropylamino)-2-oxo-1-(pyridin-3-yl)ethyl)-1H-imidazole-4-carboxamide], the IC50 was found to be 43.9 ± 6.1 µM in test [1]; 4.3 ± 0.4 µM in test [2]; 16.8 ± 2.9 µM in test [3]; 7.8 ± 1.2 µM in test [4]; 24.5 ± 4.3 µM in test [5]; 11.8 ± 1.6 µM in [6]. For the same molecule, the IC50 amounted to 11.2 ± 1 µM in test [7] and 8.9 ± 0.9 µM in test [8]. In [10], the “Score (performance metric score)” value stood at 4.0.

As to `CC(C)(C)NC(=O)C(c1cccnc1)N(C(=O)c1c[nH]cn1)c1ccc(C2CCC2)cc1` (stereo not shown) [Compound 40, N-(2-(tert-butylamino)-2-oxo-1-(pyridin-3-yl)ethyl)-N-(4-cyclobutylphenyl)-1H-imidazole-4-carboxamide], the IC50 in test [1] was 27 ± 3.1 µM; in test [2], 11.2 ± 1.5 µM; in [4] it was 6.6 ± 1.2 µM; in [5], 13.7 ± 1.3 µM; in test [6] it was 9.9 ± 1.2 µM; in test [7] it was 9.6 ± 0.7 µM. Also, the half-inhibitory concentration (IC50) in test [8] was found to be 8.7 ± 1.2 µM; in [9], 18.2 ± 2.2 µM. Also, the “Gini Coefficient” value in [10] stood at 0.16. In addition, the “Score (performance metric score)” value in test [10] was 3.6. Also, in [10], the “number of 3CL^pro's inhibited” value is given as “eight of ten”.

For the molecule `CC(C)CNC(=O)C(c1cccnc1)N(C(=O)c1c[nH]cn1)c1ccc(C(C)(C)C)cc1` (stereo not shown) [Compound 43, N-(4-(tert-butyl)phenyl)-N-(2-(isobutylamino)-2-oxo-1-(pyridin-3-yl)ethyl)-1H-imidazole-4-carboxamide], the IC50 in test [1] is 16.2 ± 1.3 µM; in test [2], 1.6 ± 0.1 µM; in test [3], 13.5 ± 0.8 µM; in test [4], 5.8 ± 0.8 µM; in test [5] it was 12.4 ± 1 µM; in test [6] it was 5.9 ± 0.5 µM. Further, the IC50 in test [7] is 4.6 ± 0.3 µM; in test [8], 5.8 ± 0.8 µM; in [9], 10.5 ± 1.1 µM.

On to `CC(C)(C)CNC(=O)C(c1cccnc1)N(C(=O)c1c[nH]cn1)c1ccc(C(C)(C)C)cc1` (stereo not shown) [Compound 44, N-(4-(tert-butyl)phenyl)-N-(2-(neopentylamino)-2-oxo-1-(pyridin-3-yl)ethyl)-1H-imidazole-4-carboxamide], for which the IC50 is 12.5 ± 0.8 µM in test [1]; 1.4 ± 0.1 µM in [2]; 8.2 ± 0.5 µM in test [3]; 9 ± 0.8 µM in test [4]; 15.6 ± 1 µM in test [5]; 6.3 ± 0.5 µM in test [6]. Besides, the IC50 in test [7] turned out to be 4.2 ± 0.2 µM; in [8] it was 3.6 ± 0.3 µM; in test [9] it was 9.1 ± 0.8 µM.

Turning to `CC(C)(C)c1ccc(N(C(=O)c2c[nH]cn2)C(C(=O)NC2CCCC2)c2cccnc2)cc1` (stereo not shown) [Compound 47, N-(4-(tert-butyl)phenyl)-N-(2-(cyclopentylamino)-2-oxo-1-(pyridin-3-yl)ethyl)-1H-imidazole-4-carboxamide], the IC50 in [1] was found to be 6.9 ± 0.5 µM; in test [2], 0.7 ± 0.03 µM; in [3], 6.3 ± 0.5 µM; in test [4] it was 3.4 ± 0.4 µM; in test [5] it was 7.7 ± 0.8 µM; in test [6], 1.7 ± 0.2 µM. For the same molecule, the results for the IC50 in [7], in [8] and in test [9] were 1.9 ± 0.1 µM, 2.5 ± 0.2 µM and 6.4 ± 0.5 µM, respectively.
